Data reported in PubChem BioAssay (NCI).
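These data come from cells grown in 96-well plates and exposed to compound for 48 hours at five concentrations. The concentration for full growth arrest is given as TGI.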

Experiments:
Test in all cases: inhibition of tumour cell growth, NCI panel, 48 h
[1] = tested on: SK-MEL-2 melanoma
[2] = tested on: BT-549 breast
[3] = tested on: SF-295 CNS
[4] = tested on: NCI-H522 lung
[5] = tested on: COLO 205 colon
[6] = tested on: NCI-H23 lung
[7] = tested on: U251 CNS
[8] = tested on: SF-268 CNS
[9] = tested on: SNB-19 CNS
[10] = tested on: SN12C renal
[11] = tested on: SNB-75 CNS

SMILES: c1ccc(COC[C@H]2C3OCC([C@H](OCc4ccccc4)[C@H]3OCc3ccccc3)N2Cc2ccccc2)cc1 (stereo partly specified)
- TGI [1]: > 100 µM
- TGI [2]: > 100 µM
- TGI [3]: > 100 µM
- TGI [4]: > 82 µM
- TGI [5]: > 100 µM
- TGI [6]: > 100 µM
- TGI [7]: > 100 µM
- TGI [8]: > 100 µM
- TGI [9]: > 100 µM
- TGI [10]: > 100 µM
- TGI [11]: > 100 µM

SMILES: CC1N=C(c2ccccc2)OC1=O (stereo unspecified)
- TGI [1]: > 100 µM
- TGI [2]: > 100 µM
- TGI [3]: > 100 µM
- TGI [4]: > 100 µM
- TGI [5]: > 100 µM
- TGI [6]: > 100 µM
- TGI [7]: > 100 µM
- TGI [8]: > 100 µM
- TGI [9]: > 100 µM
- TGI [10]: > 100 µM
- TGI [11]: > 100 µM

SMILES: CC(=O)OC(C)c1cc2c(s1)C(=O)c1ccsc1C2=O (stereo unspecified)
- TGI [1]: 0.927 µM
- TGI [2]: 0.347 µM
- TGI [3]: 0.233 µM
- TGI [4]: 0.354 µM
- TGI [5]: 2.61 µM
- TGI [6]: 0.196 µM
- TGI [7]: 1.11 µM
- TGI [8]: 0.812 µM
- TGI [9]: 0.317 µM
- TGI [10]: 0.355 µM
- TGI [11]: 0.301 µM

SMILES: Cc1nn(C(=O)c2ccc(Cl)cc2)c2c1C(c1ccc(Cl)cc1)SC(N)=N2 (stereo unspecified)
- TGI [1]: > 10 µM
- TGI [2]: > 10 µM
- TGI [3]: > 10 µM
- TGI [4]: > 10 µM
- TGI [5]: > 10 µM
- TGI [6]: > 10 µM
- TGI [7]: > 10 µM
- TGI [8]: > 10 µM
- TGI [9]: > 10 µM
- TGI [10]: > 10 µM
- TGI [11]: > 10 µM

SMILES: C[C@]12CC[C@H](O)CC1=CC[C@@H]1[C@@H]2CC[C@]2(C)NC(=O)/C(=C\c3ccccc3)C[C@@H]12
- TGI [1]: 31.8 µM
- TGI [2]: 32.7 µM
- TGI [3]: 33.2 µM
- TGI [4]: 23.1 µM
- TGI [5]: 31.9 µM
- TGI [6]: 40.7 µM
- TGI [7]: 30.3 µM
- TGI [8]: 30.7 µM
- TGI [9]: 27.8 µM
- TGI [10]: 66 µM
- TGI [11]: 48.5 µM

SMILES: CCOC(=O)C1=NNC(C(=O)c2ccccc2)C1c1ccccc1 (stereo unspecified)
- TGI [1]: 31.2 µM
- TGI [2]: 4.37 µM
- TGI [3]: 31.8 µM
- TGI [4]: 2.02 µM
- TGI [5]: 3.69 µM
- TGI [6]: 6.17 µM
- TGI [7]: 8.48 µM
- TGI [8]: 19.2 µM
- TGI [9]: 27.8 µM
- TGI [10]: 3.89 µM
- TGI [11]: 16.7 µM
